# Results as given in patent publication US10300053B2, “Quinoline carboxamides for use in the treatment of leukemia” (Active Biotech AB, priority 2014, dated 2019).
# Columns and labels:
# [1] = system: B-cell leukemia (BCL1) cells; conditions: BALB/c mice inoculated with BCL1 cells; cited from earlier work
# [2] = system: AML; conditions: 0.2 mg/kg body weight twice weekly for 2 years following ABMT for AML in remission; cited from earlier work
# [3] = system: AL-7015-P2 leukemic cells; experiment: Patient Derived Xenograft (PDX) model AL-7015 of acute lymphocytic leukemia; format: in vivo, NOD/SCID mice
# Experimental: Tasquinimod was tested in a Patient Derived Xenograft (PDX) model AL-7015 provided by Crown Bioscience In. (www.crownbio.com). Cells derived from a patient with B-cell ALL were used. On Day 0, NOD/SCID mice were inoculated i.v. with 70×10^6 AL-7015-P2 leukemic cells per mouse. From day 1 to termination mice were treated with tasquinimod ad lib. in the drinking water at 30 mg/kg. Mice were terminated, as soon as any sign of morbidity was observed. The median survival time for the vehicle group was 51 days, while it was 99 days for the treatment group (p<0.0001) (FIG. 2). In the treatment group, the tumor burden remained close to zero for at least 10 weeks, long after the vehicle group had reached 100% tumor burden (FIG. 3).
SMILES,impact on graft survival [1],impact on graft versus leukemia (GVL) effects [1],benefit over placebo regarding relapse [2],benefit over placebo regarding survival [2],"median survival time ([3]; 30 mg/kg ad lib. in drinking water from day 1 to termination, vehicle group 51 days, p<0.0001) [days]","tumor burden ([3]; 30 mg/kg in drinking water, for at least 10 weeks, long after the vehicle group had reached 100% tumor burden)"
"CN(C(=O)c1c(O)c2ccccc2n(C)c1=O)c1ccccc1 [Roquinimex, 4-hydroxy-N, 1-dimethyl-2-oxo-N-phenyl-1,2-dihydroquinoline-3-carboxamide]",no impact,no impact,no benefit,no benefit,,
"COc1cccc2c1c(O)c(C(=O)N(C)c1ccc(C(F)(F)F)cc1)c(=O)n2C [tasquinimod, 4-hydroxy-5-methoxy-N,1-dimethyl-2-oxo-N-[4-(trifluoromethyl)phenyl]-1,2-dihydroquinoline-3-carboxamide]",,,,,99,close to zero
